Columns and labels:
Assay type in all cases: ADME, organism-based; call rule not given here
[1] = Biodistribution in Sprague-Dawley rat cortex (rest) pretreated with unlabeled compound at 0.1 mg/kg, ip administered 30 mins before labeled compound treatment at 37 MBq, iv measured 15 mins post injection (0.36 +/- 0.02 %ID/g); parameters: dose 0.1 mg/kg; conditions: read-out: Drug uptake
Brain [2] = assay: Biodistribution in Sprague-Dawley rat rest of brain at 37 MBq, iv measured 5 mins post injection; conditions: in vivo
Brain [3] = assay: Biodistribution in Sprague-Dawley rat rest of brain pretreated with unlabeled compound at 5 mg/kg, ip administered 30 mins before labeled compound treatment at 37 MBq, iv measured 15 mins post injection (0.20 +/- 0.01 %ID/g); parameters: dose 5 mg/kg, route intravenous; conditions: in vivo, 0.25 h
Striatum [4] = assay: Biodistribution in Sprague-Dawley rat striatum pretreated with unlabeled compound at 10 mg/kg, ip administered 30 mins before labeled compound treatment at 37 MBq, iv measured 15 mins post injection (reference value: 0.13 +/- 0.22 %ID/g); parameters: dose 10 mg/kg, route intravenous; conditions: in vivo, 0.25 h
Blood [5] = assay: Biodistribution in Sprague-Dawley rat blood at 37 MBq, iv measured 15 mins post injection; conditions: in vivo, 0.25 h
[6] = Biodistribution in Sprague-Dawley rat hippocampus pretreated with unlabeled compound at 10 mg/kg, ip administered 30 mins before labeled compound treatment at 37 MBq, iv measured 15 mins post injection (reference value: 0.22 +/- 0.22 %ID/g); parameters: dose 10 mg/kg; conditions: read-out: Drug uptake
Rattus norvegicus [7] = assay: Biodistribution in Sprague-Dawley rat cortex (rest) at 37 MBq, iv measured 30 mins post injection; conditions: in vivo, 0.5 h
[8] = Biodistribution in Sprague-Dawley rat rest of brain pretreated with unlabeled compound at 0.1 mg/kg, ip administered 30 mins before labeled compound treatment at 37 MBq, iv measured 15 mins post injection (0.20 +/- 0.01 %ID/g); parameters: dose 0.1 mg/kg; conditions: read-out: Drug uptake
Hippocampus [9] = assay: Biodistribution in Sprague-Dawley rat hippocampus at 37 MBq, iv measured 15 mins post injection; conditions: in vivo, 0.25 h
Hippocampus [10] = assay: Biodistribution in Sprague-Dawley rat hippocampus at 37 MBq, iv measured 5 mins post injection; conditions: in vivo
Rattus norvegicus [11] = assay: Biodistribution in Sprague-Dawley rat cortex (front) at 37 MBq, iv measured 30 mins post injection; conditions: in vivo, 0.5 h
Rattus norvegicus [12] = assay: Biodistribution in Sprague-Dawley rat cortex (front) pretreated with unlabeled compound at 5 mg/kg, ip administered 30 mins before labeled compound treatment at 37 MBq, iv measured 15 mins post infection (reference value: 0.42 +/- 0.04%ID/g); parameters: dose 5 mg/kg; conditions: in vivo, 0.25 h
Cerebellum [13] = assay: Biodistribution in Sprague-Dawley rat cerebellum at 37 MBq, iv measured 15 mins post injection; conditions: in vivo, 0.25 h
Rattus norvegicus [14] = assay: Biodistribution in Sprague-Dawley rat cortex (rest) at 37 MBq, iv measured 15 mins post injection; conditions: in vivo, 0.25 h
Brain [15] = assay: Biodistribution in Sprague-Dawley rat rest of brain at 37 MBq, iv measured 30 mins post injection; conditions: in vivo, 0.5 h
Striatum [16] = assay: Biodistribution in Sprague-Dawley rat striatum at 37 MBq, iv measured 5 mins post injection; conditions: in vivo
Rattus norvegicus [17] = assay: Biodistribution in Sprague-Dawley rat cortex (front) pretreated with unlabeled compound at 10 mg/kg, ip administered 30 mins before labeled compound treatment at 37 MBq, iv measured 15 mins post infection (reference value: 0.42 +/- 0.04%ID/g); parameters: dose 10 mg/kg; conditions: in vivo, 0.25 h
Blood [18] = assay: Biodistribution in Sprague-Dawley rat blood at 37 MBq, iv measured 60 mins post injection; conditions: in vivo, 1 h
Blood [19] = assay: Biodistribution in Sprague-Dawley rat blood at 37 MBq, iv measured 5 mins post injection; conditions: in vivo
Blood [20] = assay: Biodistribution in Sprague-Dawley rat blood pretreated with unlabeled compound at 5 mg/kg, ip administered 30 mins before labeled compound treatment at 37 MBq, iv measured 15 mins post injection (0.11 +/- 0.01 %ID/g); parameters: dose 5 mg/kg; conditions: in vivo, 0.25 h
[21] = Biodistribution in Sprague-Dawley rat cerebellum pretreated with unlabeled compound at 0.1 mg/kg, ip administered 30 mins before labeled compound treatment at 37 MBq, iv measured 15 mins post injection (reference value: 0.26 %ID/g); parameters: dose 0.1 mg/kg; conditions: read-out: Drug uptake
Blood [22] = assay: Biodistribution in Sprague-Dawley rat blood at 37 MBq, iv measured 30 mins post injection; conditions: in vivo, 0.5 h
Rattus norvegicus [23] = assay: Biodistribution in Sprague-Dawley rat cortex (rest) pretreated with unlabeled compound at 10 mg/kg, ip administered 30 mins before labeled compound treatment at 37 MBq, iv measured 15 mins post injection (0.36 +/- 0.02 %ID/g); parameters: dose 10 mg/kg; conditions: in vivo, 0.25 h
[24] = Biodistribution in Sprague-Dawley rat cerebellum pretreated with unlabeled compound at 10 mg/kg, ip administered 30 mins before labeled compound treatment at 37 MBq, iv measured 15 mins post injection (reference value: 0.26 %ID/g); parameters: dose 10 mg/kg; conditions: read-out: Drug uptake
Brain [25] = assay: Biodistribution in Sprague-Dawley rat rest of brain at 37 MBq, iv measured 60 mins post injection; conditions: in vivo, 1 h
Hippocampus [26] = assay: Biodistribution in Sprague-Dawley rat hippocampus at 37 MBq, iv measured 60 mins post injection; conditions: in vivo, 1 h
Rattus norvegicus [27] = assay: Biodistribution in Sprague-Dawley rat cortex (rest) pretreated with unlabeled compound at 5 mg/kg, ip administered 30 mins before labeled compound treatment at 37 MBq, iv measured 15 mins post injection (0.36 +/- 0.02 %ID/g); parameters: dose 5 mg/kg; conditions: in vivo, 0.25 h
Brain [28] = assay: Biodistribution in Sprague-Dawley rat rest of brain pretreated with unlabeled compound at 10 mg/kg, ip administered 30 mins before labeled compound treatment at 37 MBq, iv measured 15 mins post injection (0.20 +/- 0.01 %ID/g); parameters: dose 10 mg/kg; conditions: in vivo, 0.25 h
Plasma = assay: Drug metabolism in Sprague-Dawley rat plasma at 37 MBq, iv measured after 5 mins; conditions: in vivo
Hippocampus [29] = assay: Biodistribution in Sprague-Dawley rat hippocampus at 37 MBq, iv measured 30 mins post injection; conditions: in vivo, 0.5 h
Blood [30] = assay: Biodistribution in Sprague-Dawley rat blood pretreated with unlabeled compound at 0.1 mg/kg, ip administered 30 mins before labeled compound treatment at 37 MBq, iv measured 15 mins post injection (0.11 +/- 0.01 %ID/g); parameters: dose 0.1 mg/kg; conditions: in vivo, 0.25 h
Cerebellum [31] = assay: Biodistribution in Sprague-Dawley rat cerebellum at 37 MBq, iv measured 5 mins post injection; conditions: in vivo
[32] = Biodistribution in Sprague-Dawley rat cerebellum pretreated with unlabeled compound at 5 mg/kg, ip administered 30 mins before labeled compound treatment at 37 MBq, iv measured 15 mins post injection (reference value: 0.26 %ID/g); parameters: dose 5 mg/kg; conditions: read-out: Drug uptake
[33] = Metabolic stability of the compound in Sprague-Dawley rat plasma assessed as compound remaining at 37 MBq, iv measured after 15 mins; conditions: read-out: Stability
Striatum [34] = assay: Biodistribution in Sprague-Dawley rat striatum at 37 MBq, iv measured 15 mins post injection; conditions: in vivo, 0.25 h
[35] = Biodistribution in Sprague-Dawley rat striatum pretreated with unlabeled compound at 5 mg/kg, ip administered 30 mins before labeled compound treatment at 37 MBq, iv measured 15 mins post injection (reference value: 0.13 +/- 0.22 %ID/g); parameters: dose 5 mg/kg, route intravenous; conditions: read-out: Drug uptake
Cerebellum [36] = assay: Biodistribution in Sprague-Dawley rat cerebellum at 37 MBq, iv measured 60 mins post injection; conditions: in vivo, 1 h
Rattus norvegicus [37] = assay: Biodistribution in Sprague-Dawley rat cortex (front) at 37 MBq, iv measured 15 mins post injection; conditions: in vivo, 0.25 h

SMILES: [11CH3]Oc1ncccc1-c1cccc2c(N)c3c(nc12)CN(C1CCC1)C3=O
- tissue uptake at 0.25 h [1]: 0.27 %ID/g
- Drug uptake (Brain [2]): 0.25 % ID/g
- Drug uptake (Brain [3]): 0.09 % ID/g
- Drug uptake (Striatum [4]): 0.08 % ID/g
- Drug uptake (Blood [5]): 0.15 % ID/g
- tissue uptake at 0.25 h [6]: 0.08 %ID/g
- Drug uptake (Rattus norvegicus [7]): 0.37 % ID/g
- tissue uptake at 0.25 h [8]: 0.16 %ID/g
- Drug uptake (Hippocampus [9]): 0.29 % ID/g
- Drug uptake (Hippocampus [10]): 0.2 % ID/g
- Drug uptake (Rattus norvegicus [11]): 0.44 % ID/g
- Drug uptake (Rattus norvegicus [12]): 0.16 % ID/g
- Drug uptake (Cerebellum [13]): 0.34 % ID/g
- Drug uptake (Rattus norvegicus [14]): 0.46 % ID/g
- Drug uptake (Brain [15]): 0.22 % ID/g
- Drug uptake (Striatum [16]): 0.26 % ID/g
- Drug uptake (Rattus norvegicus [17]): 0.13 % ID/g
- Drug uptake (Blood [18]): 0.08 % ID/g
- Drug uptake (Blood [19]): 0.14 % ID/g
- Drug uptake (Blood [20]): 0.12 % ID/g
- tissue uptake at 0.25 h [21]: 0.22 %ID/g
- Drug uptake (Blood [22]): 0.11 % ID/g
- Drug uptake (Rattus norvegicus [23]): 0.11 % ID/g
- tissue uptake at 0.25 h [24]: 0.09 %ID/g
- Drug uptake (Brain [25]): 0.11 % ID/g
- Drug uptake (Hippocampus [26]): 0.09 % ID/g
- Drug uptake (Rattus norvegicus [27]): 0.14 % ID/g
- Drug uptake (Brain [28]): 0.09 % ID/g
- Drug metabolism (Plasma): Active
- Drug uptake (Hippocampus [29]): 0.24 % ID/g
- Drug uptake (Blood [30]): 0.11 % ID/g
- Drug uptake (Cerebellum [31]): 0.36 % ID/g
- tissue uptake at 0.25 h [32]: 0.12 %ID/g
- remaining at 0.25 h [33]: 71%
- Drug uptake (Striatum [34]): 0.21 % ID/g
- tissue uptake at 0.25 h [35]: 0.1 %ID/g
- Drug uptake (Cerebellum [36]): 0.13 % ID/g
- Drug uptake (Rattus norvegicus [37]): 0.53 % ID/g

Source: ChEMBL document CHEMBL2057083, “Development of new carbon-11 labelled radiotracers for imaging GABAA- and GABAB-benzodiazepine receptors” (Bioorg Med Chem, 2012)
